These results are taken from US11077120B2, “Prostaglandin receptor EP2 antagonists, derivatives, compositions, and uses related thereto” (Emory University, priority 2014, dated 2021).

In brackets after ≈: the same amount, converted by molar mass. Like-named read-outs stand apart in the source and are kept apart here.

For series [1] the following is noted: pH 7.4.
The nature of a further series: physchem. To be noted: pH 7.4, aqueous buffer, kinetic from dmso stock.
The conditions of series [2]: mouse, in vivo.
For a further series, the target named is T1, human EP2 receptors (Homo sapiens, UniProt P43116).
T1 construct: expressed in transfected cells
As to the kind of experiment: cell-based cAMP TR-FRET assay, rightward shift of PGE2 concentration response curve (Schild KB), EP2. To be noted: Schild regression analysis. The procedure, abridged: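 C6G cells overexpressing human EP2 were pre-incubated 0.5–1 h at RT in HBSS with 20 μM rolipram, then exposed to 1 μM compound for 10 min before increasing PGE2 for 40 min at RT. cAMP was read by TR-FRET (cAMP-d2/anti-cAMP cryptate, F665/F590). KB is the antagonist concentration giving a twofold rightward shift of the PGE2 curve.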

T1 sequence (P43116 whole entry): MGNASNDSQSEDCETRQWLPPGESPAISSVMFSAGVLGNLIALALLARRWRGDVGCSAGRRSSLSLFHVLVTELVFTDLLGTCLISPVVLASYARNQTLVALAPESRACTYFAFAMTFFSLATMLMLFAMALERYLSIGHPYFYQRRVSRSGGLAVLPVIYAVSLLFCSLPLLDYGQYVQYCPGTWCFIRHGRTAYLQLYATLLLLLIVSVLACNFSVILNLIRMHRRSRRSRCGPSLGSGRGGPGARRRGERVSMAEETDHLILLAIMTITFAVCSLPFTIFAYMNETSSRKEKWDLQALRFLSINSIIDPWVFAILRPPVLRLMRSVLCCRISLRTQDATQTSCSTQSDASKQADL

For the compound `O=C(/C=C/c1ccc(OCCO)c(OCCO)c1)NCCn1c(C(F)(F)F)cc2ccccc21` [Compound 16b], the Solubility (in series [1]; in the series “physchem”) was 67 µM (≈ 32.1 µg/mL) each time.

Consider `Cc1cc2ccccc2n1CCNC(=O)/C=C/c1ccc(OCCO)c(OCCO)c1` [Compound 16a, (E)-3-(3,4-bis(2-hydroxyethoxy)phenyl)-N-(2-(2-methyl-1H-indol-1-yl)ethyl)acrylamide], for which the Solubility (in general, how much of the substance goes into solution per volume) in series [1] worked out at 153 µM (≈ 64.9 µg/mL). The C-max in series [2] (ip, 5 mg/kg) was 1510 ± 142 ng/mL; in series [2] (po, 10 mg/kg), 128 ± 23 ng/mL. Besides, the “T1/2 (plasma)” value in series [2] (ip, 5 mg/kg) amounted to 1.49 h; in series [2] (po, 10 mg/kg), 1.44 h. Also, at human EP2 receptors, the “mechanism of antagonism of EP2” value is recorded as “competitive”.
